Experiments:
Assay in all cases: relative viability (nuclei count vs DMSO), 5 days (fraction); higher = more cells survive
[1] = compound: Cn1cc(-c2cnn3c(N)c(Br)c([C@@H]4CCCNC4)nc23)cn1 + CC(=O)c1c(C)c2cnc(Nc3ccc(N4CCNCC4)cn3)nc2n(C2CCCC2)c1=O [Palbociclib] (partner 0.5 µM)
In short: (§1)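 Lung cancer cell lines were seeded in 1536-well plates and dosed by pin tool the next day, with either a single drug or a fixed anchor-drug dose combined with five library-drug doses (not always all listed) spaced in √10 steps. Five days later, one step fixed the cells and stained their nuclei (final 0.05% Triton X-100, 1% formaldehyde, 1 ug/ml Hoechst), and nuclei were counted on 4× images. Relative viability is the nuclei count in treated wells divided by the count in vehicle wells, and each value is the median of duplicate plates.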

[2] = compound: Cn1cc(-c2cnn3c(N)c(Br)c([C@@H]4CCCNC4)nc23)cn1 + C[C@@H](Oc1cc(-c2cnn(C3CCNCC3)c2)cnc1N)c1c(Cl)ccc(F)c1Cl [Crizotinib] (partner 1 µM)
In short: as §1

[3] = compound: Cn1cc(-c2cnn3c(N)c(Br)c([C@@H]4CCCNC4)nc23)cn1 + NC(=O)Nc1cc(-c2cccc(F)c2)sc1C(=O)N[C@H]1CCCNC1 [AZD7762] (partner 0.2 µM)
In short: as §1

[4] = compound: Cn1cc(-c2cnn3c(N)c(Br)c([C@@H]4CCCNC4)nc23)cn1 + O=C(CCCCCCC(=O)Nc1ccccc1)NO [Vorinostat] (partner 1 µM)
In short: as §1

Cell Line	relative viability ([1]; first compound 0.05 µM)	relative viability ([1]; first compound 0.1581 µM)	relative viability ([1]; first compound 0.5 µM)	relative viability ([1]; first compound 1.581 µM)	relative viability ([1]; first compound 5 µM)	relative viability ([2]; first compound 0.05 µM)	relative viability ([2]; first compound 0.1581 µM)	relative viability ([2]; first compound 0.5 µM)	relative viability ([2]; first compound 1.581 µM)	relative viability ([2]; first compound 5 µM)	relative viability ([3]; first compound 0.05 µM)	relative viability ([3]; first compound 0.1581 µM)	relative viability ([3]; first compound 0.5 µM)	relative viability ([3]; first compound 1.581 µM)	relative viability ([3]; first compound 5 µM)	relative viability ([4]; first compound 0.05 µM)	relative viability ([4]; first compound 0.1581 µM)	relative viability ([4]; first compound 0.5 µM)	relative viability ([4]; first compound 1.581 µM)	relative viability ([4]; first compound 5 µM)
EKVX	0.368	0.376	0.383	0.413	0.355	0.942	1.27	1.09	0.821	0.945	0.76	0.75	0.711	0.603	0.537	0.736	0.723	0.712	0.638	0.691
EMC-BAC-2	0.533	0.52	0.527	0.445	0.43	0.73	0.769	0.715	0.646	0.703	1.05	1.26	1.08	1.04	0.821	0.275	0.351	0.35	0.46	0.23
EPLC-272H	0.294	0.312	0.311	0.273	0.25	0.943	1.07	1	0.945	0.826	0.13	0.195	0.179	0.17	0.178	0.571	0.275	0.239	0.266	0.15
H3255	0.314	0.342	0.323	0.291	0.277	0.799	0.852	0.942	0.729	0.5	0.978	0.896	1.05	0.746	0.527	0.738	0.872	0.914	0.746	0.411
HARA	0.246	0.264	0.322	0.299	0.158	0.935	1.12	0.987	0.842	0.369	0.401	0.34	0.292	0.26	0.199	0.62	0.511	0.511	0.433	0.556
HCC-15	0.71	0.785	0.721	0.604	0.591	0.926	0.98	0.877	0.722	0.652	1.18	1.29	1.3	1.31	1.36	0.922	1	0.9	0.804	0.705
HCC-44	0.876	0.957	0.978	0.964	0.952	0.906	1.02	0.913	0.86	0.789	0.889	1.01	1.02	0.964	1.05	1.08	1.13	1.22	1.08	1.12
HCC-78	0.445	0.391	0.532	0.439	0.488	0.323	0.391	0.378	0.344	0.218	0.515	0.647	0.648	0.563	0.386	0.431	0.609	0.478	0.41	0.416

— the supplement of paper PMC10307832
